We go through 19 molecules from patent US20220348563A1, “KDM INHIBITORS AND USES THEREOF” (DANA-FARBER CANCER INSTITUTE, INC., priority 2019, published 2022).

The target of experiment [1] is KDM3B (Homo sapiens, UniProt Q7LBC6). Nature of the experiment: KDM3B AlphaScreen assay (Table 1). In kind it is biochemical. The protocol:
AlphaScreen assays were performed in 384-well plate format using white AlphaPlate™ (PerkinElmer®, USA), and transfer of pre-diluted compound (100 nL) was performed using a Janus® Workstation (PerkinElmer®, USA). All subsequent steps were carried out in assay buffer (50 mM 4-(2-hydroxyethyl)-1-piperazineethanesulfonic acid (HEPES), pH 7.5, 0.1% (wt/vol) bovine serum albumin (BSA) and 0.01% (vol/vol) Tween®20). In brief, 10 μL of assay buffer containing demethylase enzyme (2 nM Final) was pre-incubated for 15 min with dilutions of compound. The enzyme reaction was initiated by the addition of substrate (5 μL) consisting of L-ascorbic acid (100 μM Final), […] (OG) (5 μM Final), FAS (10 μM Final) and histone H3(1-21)K9Me3-GGK Biotin (100 nM Final). The enzyme reaction was allowed to proceed for 30 minutes and was stopped by the addition of 5 μL of assay buffer containing ethylenediaminetetraacetic acid (EDTA) (40 mM) and NaCl (1,200 mM). The final concentration of DMSO was 1%. Streptavidin donor beads (0.08 mg/ml) and protein-A-conjugated acceptor beads (0.08 mg/ml) were preincubated for 1 h with antibody to methyl mark (300 ng/mL Final), and the presence of histone H3 product methyl mark was detected using the preincubated AlphaScreen™ beads (5 μL). […] Data were normalized to the (no-enzyme) control, and the IC50 values were determined via nonlinear regression curve fit using GraphPad Prism 7.
Data are expressed as IC50 (μM).
In general terms: Alpha assays give light when donor and acceptor beads are brought close together.

In experiment [2] the target is T1, KDM3A (Homo sapiens, UniProt Q9Y4C1).
T1 sequence (Q9Y4C1 1-1321): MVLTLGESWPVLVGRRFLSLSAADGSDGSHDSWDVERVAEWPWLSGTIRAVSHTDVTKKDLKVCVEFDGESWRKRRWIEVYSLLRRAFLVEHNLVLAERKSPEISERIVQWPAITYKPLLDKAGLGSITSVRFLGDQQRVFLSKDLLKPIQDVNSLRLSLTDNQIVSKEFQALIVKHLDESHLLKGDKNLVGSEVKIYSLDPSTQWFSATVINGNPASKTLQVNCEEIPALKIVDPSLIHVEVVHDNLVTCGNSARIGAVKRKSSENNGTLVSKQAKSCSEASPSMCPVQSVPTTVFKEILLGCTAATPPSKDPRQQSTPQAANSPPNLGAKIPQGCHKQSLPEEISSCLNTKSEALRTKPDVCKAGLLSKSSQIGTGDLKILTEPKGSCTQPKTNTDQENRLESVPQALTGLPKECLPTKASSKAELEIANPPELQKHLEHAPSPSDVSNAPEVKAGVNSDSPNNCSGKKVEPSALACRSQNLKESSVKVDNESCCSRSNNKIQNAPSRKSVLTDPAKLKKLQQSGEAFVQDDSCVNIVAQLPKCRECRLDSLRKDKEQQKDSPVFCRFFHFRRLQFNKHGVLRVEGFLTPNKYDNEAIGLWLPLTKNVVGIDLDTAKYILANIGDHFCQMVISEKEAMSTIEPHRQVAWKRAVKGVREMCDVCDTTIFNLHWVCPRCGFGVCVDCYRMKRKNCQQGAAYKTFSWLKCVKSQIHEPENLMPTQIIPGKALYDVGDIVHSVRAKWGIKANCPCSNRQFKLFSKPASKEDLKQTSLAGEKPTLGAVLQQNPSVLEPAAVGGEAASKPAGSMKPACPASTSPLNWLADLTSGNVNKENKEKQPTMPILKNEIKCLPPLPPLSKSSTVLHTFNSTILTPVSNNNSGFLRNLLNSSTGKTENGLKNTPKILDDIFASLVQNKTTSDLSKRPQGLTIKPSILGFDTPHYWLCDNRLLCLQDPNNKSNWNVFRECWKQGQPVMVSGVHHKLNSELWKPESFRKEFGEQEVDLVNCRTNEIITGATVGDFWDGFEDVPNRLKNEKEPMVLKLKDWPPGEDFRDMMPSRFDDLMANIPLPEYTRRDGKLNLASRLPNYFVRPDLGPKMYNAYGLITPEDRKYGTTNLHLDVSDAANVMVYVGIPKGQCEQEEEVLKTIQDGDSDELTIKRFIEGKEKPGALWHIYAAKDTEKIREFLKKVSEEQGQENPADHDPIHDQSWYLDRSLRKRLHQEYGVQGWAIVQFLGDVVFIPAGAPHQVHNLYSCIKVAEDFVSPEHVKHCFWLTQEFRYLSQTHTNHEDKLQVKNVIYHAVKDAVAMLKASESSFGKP
Nature of the experiment: KDM3 AlphaScreen assay (Table 2, ASSAY 9). The conditions noted are these: for IC50: ASSAY 9. In kind it is biochemical. The protocol: AlphaScreen assays were performed in 384-well plate format using white AlphaPlate™ (PerkinElmer®, USA), and transfer of pre-diluted compound (100 nL) was performed using a Janus® Workstation (PerkinElmer®, USA). All subsequent steps were carried out in assay buffer (50 mM 4-(2-hydroxyethyl)-1-piperazineethanesulfonic acid (HEPES), pH 7.5, 0.1% (wt/vol) bovine serum albumin (BSA) and 0.01% (vol/vol) Tween®20). In brief, 10 μL of assay buffer containing demethylase enzyme (2 nM Final) was pre-incubated for 15 min with dilutions of compound. The enzyme reaction was initiated by the addition of substrate (5 μL) consisting of L-ascorbic acid (100 μM Final), […] (OG) (5 μM Final), FAS (10 μM Final) and histone H3(1-21)K9Me3-GGK Biotin (100 nM Final). The enzyme reaction was allowed to proceed for 30 minutes and was stopped by the addition of 5 μL of assay buffer containing ethylenediaminetetraacetic acid (EDTA) (40 mM) and NaCl (1,200 mM). The final concentration of DMSO was 1%. Streptavidin donor beads (0.08 mg/ml) and protein-A-conjugated acceptor beads (0.08 mg/ml) were preincubated for 1 h with antibody to methyl mark (300 ng/mL Final), and the presence of histone H3 product methyl mark was detected using the preincubated AlphaScreen™ beads (5 μL). Detection was allowed to proceed for 2 h at room temperature, and the assay plates were read on the EnVision® 2104 plate reader. Data were normalized to the (no-enzyme) control, and the IC50 values were determined via nonlinear regression curve fit using GraphPad Prism 7.

The structures appear in SMILES notation.

KDM3B, sequence (Q7LBC6 whole entry, species assumed): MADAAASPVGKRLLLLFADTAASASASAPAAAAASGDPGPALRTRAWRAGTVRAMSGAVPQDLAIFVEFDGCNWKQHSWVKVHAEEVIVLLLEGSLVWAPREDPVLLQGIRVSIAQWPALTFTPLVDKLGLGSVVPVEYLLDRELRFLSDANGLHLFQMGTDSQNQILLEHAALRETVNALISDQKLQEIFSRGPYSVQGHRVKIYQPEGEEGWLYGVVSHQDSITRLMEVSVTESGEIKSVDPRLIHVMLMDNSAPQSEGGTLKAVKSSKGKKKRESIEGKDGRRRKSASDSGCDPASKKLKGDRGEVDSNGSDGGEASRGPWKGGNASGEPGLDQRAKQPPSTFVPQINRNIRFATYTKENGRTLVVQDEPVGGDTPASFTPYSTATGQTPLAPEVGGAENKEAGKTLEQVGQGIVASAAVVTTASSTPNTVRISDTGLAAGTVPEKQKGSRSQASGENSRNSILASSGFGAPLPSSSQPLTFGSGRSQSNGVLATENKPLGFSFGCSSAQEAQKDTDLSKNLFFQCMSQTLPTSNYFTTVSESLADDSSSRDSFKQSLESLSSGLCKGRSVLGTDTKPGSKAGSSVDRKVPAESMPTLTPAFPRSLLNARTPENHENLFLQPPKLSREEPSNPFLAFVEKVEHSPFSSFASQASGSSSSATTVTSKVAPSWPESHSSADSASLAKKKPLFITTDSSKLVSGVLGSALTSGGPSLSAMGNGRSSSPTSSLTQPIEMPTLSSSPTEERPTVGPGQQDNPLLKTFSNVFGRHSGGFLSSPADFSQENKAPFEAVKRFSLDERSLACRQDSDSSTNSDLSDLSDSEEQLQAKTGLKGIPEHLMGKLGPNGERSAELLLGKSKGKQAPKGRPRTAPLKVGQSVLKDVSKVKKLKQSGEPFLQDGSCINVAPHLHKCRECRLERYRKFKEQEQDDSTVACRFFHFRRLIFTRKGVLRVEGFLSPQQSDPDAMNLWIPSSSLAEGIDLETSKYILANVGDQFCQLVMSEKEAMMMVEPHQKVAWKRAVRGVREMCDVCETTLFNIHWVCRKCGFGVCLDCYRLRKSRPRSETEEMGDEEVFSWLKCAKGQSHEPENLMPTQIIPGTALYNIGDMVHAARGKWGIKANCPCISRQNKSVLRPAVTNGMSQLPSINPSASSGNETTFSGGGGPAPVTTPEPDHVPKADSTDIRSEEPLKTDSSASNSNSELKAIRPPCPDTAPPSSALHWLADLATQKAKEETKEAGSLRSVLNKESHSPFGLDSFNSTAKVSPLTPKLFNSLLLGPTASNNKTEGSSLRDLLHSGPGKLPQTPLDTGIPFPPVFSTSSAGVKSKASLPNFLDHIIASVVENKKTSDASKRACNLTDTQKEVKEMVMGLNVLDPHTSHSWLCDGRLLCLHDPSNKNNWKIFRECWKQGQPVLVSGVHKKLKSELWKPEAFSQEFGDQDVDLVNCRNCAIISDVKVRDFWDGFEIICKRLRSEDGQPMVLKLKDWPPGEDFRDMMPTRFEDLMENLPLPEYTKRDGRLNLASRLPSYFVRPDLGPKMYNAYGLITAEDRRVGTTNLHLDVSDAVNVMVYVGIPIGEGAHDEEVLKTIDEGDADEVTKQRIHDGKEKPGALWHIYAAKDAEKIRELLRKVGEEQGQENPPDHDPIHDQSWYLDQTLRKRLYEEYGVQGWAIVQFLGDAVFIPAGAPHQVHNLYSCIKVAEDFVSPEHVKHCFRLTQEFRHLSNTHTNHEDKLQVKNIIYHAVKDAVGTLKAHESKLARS

What is called IC50 is the concentration that inhibits the measured activity by half. Read a low IC50 as greater potency. On to `CN(C)c1ccc(-c2ccc(OC3CN(C(=O)c4ccccc4[N+](=O)[O-])C3)nc2)cc1` [KDM3-42, (3-((5-(4-(dimethylamino)phenyl)pyridin-2-yl)oxy)azetidin-1-yl)(2-nitrophenyl)methanone], for which the IC50 in experiment [1] (ASSAY 8) came out at 11.8 µM.

For `CN(C)c1ccc(-c2ccc(OC3CCN(C(=O)c4cn(S(=O)(=O)c5ccccc5)c5ccccc45)CC3)nc2)cc1` [Compound 11], in experiment [2], the “KDM3A inhibition, verdict in words on Table 2” value was “potent KDM3A inhibitors” and half-maximal inhibition (IC50) required 33.6 µM.

`CN(C)c1ccc(CCC(=O)Nc2ccc(OC(F)(F)F)cc2C(=O)N2CCC(Oc3ccc(-c4ccc(N(C)C)cc4)cn3)CC2)cc1` [KDM3-59, 3-(4-(dimethylamino)phenyl)-N-(2-(4-((5-(4-(dimethylamino)phenyl)pyridin-2-yl)oxy)piperidine-1-carbonyl)-4-(trifluoromethoxy)phenyl)propanamide] had an IC50 in experiment [2] of 23.6 µM.

In experiment [2], `CN(C)c1ccc(CCC(=O)Nc2cc(F)ccc2C(=O)N2CCC(Oc3ccc(-c4ccc(N(C)C)cc4)cn3)CC2)cc1` [KDM3-51, 3-(4-(dimethylamino)phenyl)-N-(2-(4-((5-(4-(dimethylamino)phenyl)pyridin-2-yl)oxy)piperidine-1-carbonyl)-5-fluorophenyl)propanamide] yielded an IC50 of 14 µM.

`CN(C)c1ccc(CCNC(=O)CCC(=O)N2CCC(Oc3cc(-c4ccc(N(C)C)cc4)ccn3)CC2)cc1` [JADA84, N-(4-(dimethylamino)phenethyl)-4-(4-((4-(4-(dimethylamino)phenyl)pyridin-2-yl)oxy)piperidin-1-yl)-4-oxobutanamide] registered a half-inhibitory concentration (IC50) in experiment [1] (ASSAY 1) of 53 µM.

`CN(C)c1ccc(CNC(=O)/C=C\C(=O)N2CCC(Oc3ccc(-c4ccc(N(C)C)cc4)cn3)CC2)cc1` [KDM3-47, (Z)-N-(4-(dimethylamino)benzyl)-4-(4-((5-(4-(dimethylamino)phenyl)pyridin-2-yl)oxy)piperidin-1-yl)-4-oxobut-2-enamide] registered an IC50 in experiment [2] of 13 µM.

`CN(C)c1ccc(CCC(=O)Nc2ccc(F)cc2C(=O)N2CCC(Oc3ccc(-c4ccc(CN5CCOCC5)cc4)cn3)CC2)cc1` [KDM3-24] returned an IC50 in experiment [1] (ASSAY 5) of 10.9 µM.

Take `CN(C)c1ccc(CCNC(=O)/C=C\C(=O)N2CCC(Oc3ccc(-c4ccc(N(C)C)cc4)cn3)CC2)cc1` [KDM3-38, (Z)-N-(4-(dimethylamino)phenethyl)-4-(4-((5-(4-(dimethylamino)phenyl)pyridin-2-yl)oxy)piperidin-1-yl)-4-oxobut-2-enamide]: 5.65 µM corresponded to half-maximal inhibition in experiment [1] (ASSAY 7) (IC50).

Turning to `CN(C)c1ccc(CCNC(=O)CCC(=O)N2CCC(Oc3ccc(C(F)(F)F)cn3)CC2)cc1` [JADA69, N-(4-(dimethylamino)phenethyl)-4-oxo-4-(4-((5-(trifluoromethyl)pyridin-2-yl)oxy)piperidin-1-yl)butanamide], the half-inhibitory concentration (IC50) in experiment [1] (ASSAY 1) is 27.9 µM.

`CN(C)c1ccc(-c2ccnc(OC3CCN(C(=O)c4cc(C(=O)O)ccc4N)CC3)c2)cc1` [KDM3-43, 4-amino-3-(4-((4-(4-(dimethylamino)phenyl)pyridin-2-yl)oxy)piperidine-1-carbonyl)benzoic acid] gave an IC50 in experiment [1] (ASSAY 8) of 61 µM.

Take `CN(C)c1ccc(-c2ccc(OC3CCN(C(=O)c4ccccc4[N+](=O)[O-])CC3)nc2)cc1` [KDM3-39, (4-((5-(4-(dimethylamino)phenyl)pyridin-2-yl)oxy)piperidin-1-yl)(2-nitrophenyl)methanone]: the IC50 worked out at 10.9 µM in experiment [1] (ASSAY 7) and 19.2 µM in experiment [1] (ASSAY 8).

Regarding `CN(C)c1ccc(CCNC(=O)CCC(=O)N2CCC(Oc3ccc(-c4ccc(N(C)C)cc4)cn3)CC2)cc1` [JADA92, N-(4-(dimethylamino)phenethyl)-4-(4-((5-(4-(dimethylamino)phenyl)pyridin-2-yl)oxy)piperidin-1-yl)-4-oxobutanamide], the IC50 in experiment [1] (ASSAY 1) worked out at 8.78 µM; in experiment [1] (ASSAY 2) it was 13.7 µM; in experiment [1] (ASSAY 7) it was 9.79 µM.

Turning to `CC(=O)Nc1ccc(C(=O)N2CCC(Oc3ccc(-c4ccc(N(C)C)cc4)cn3)CC2)c(N)c1` [KDM3-40, N-(3-amino-4-(4-((5-(4-(dimethylamino)phenyl)pyridin-2-yl)oxy)piperidine-1-carbonyl)phenyl)acetamide], half-maximal inhibition in experiment [1] (ASSAY 8) (IC50) was put at 22.4 µM.

The molecule `CN(C)c1ccc(-c2ccc(OC3CCN(C(=O)c4cc(C(=O)O)ccc4N)CC3)nc2)cc1` [KDM3-41, 4-amino-3-(4-((5-(4-(dimethylamino)phenyl)pyridin-2-yl)oxy)piperidine-1-carbonyl)benzoic acid] returned an IC50 in experiment [1] (ASSAY 8) of 49.4 µM.

Molecule `CN(C)c1ccc(CCC(=O)Nc2ccc(F)cc2C(=O)N2CCC(Oc3cc(N4CCOCC4)ccn3)CC2)cc1` [KDM3-26, 3-(4-(dimethylamino)phenyl)-N-(4-fluoro-2-(4-((4-morpholinopyridin-2-yl)oxy)piperidine-1-carbonyl)phenyl)propanamide] returned an IC50 in experiment [1] (ASSAY 6) of 74.3 µM.

`CN(C)c1ccc(CCC(=O)Nc2ccc(F)cc2C(=O)N2CCC(Oc3ccc(-c4ccc(N(C)C)cc4)cn3)CC2)cc1` [KDM3-23, 3-(4-(dimethylamino)phenyl)-N-(2-(4-((5-(4-(dimethylamino)phenyl)pyridin-2-yl)oxy)piperidine-1-carbonyl)-4-fluorophenyl)propanamide]: in experiment [1], the “KDM3B inhibition, verdict in words on Table 1” value is “potent KDM3B inhibitors”. For the same molecule, the midpoint of inhibition in experiment [1] (ASSAY 5), the IC50, lay at 4.78 µM.

For `CN(C)c1ccc(CCCNC(=O)c2ccccc2C(=O)N2CCC(Oc3ccc(Br)cn3)CC2)cc1` [JADA133], the IC50 in experiment [1] (ASSAY 3) is 18.6 µM.

On to `CCOC(=O)c1ccc(N)c(C(=O)N2CCC(Oc3cc(-c4ccc(N(C)C)cc4)ccn3)CC2)c1` [KDM3-31, ethyl 4-amino-3-(4-((4-(4-(dimethylamino)phenyl)pyridin-2-yl)oxy)piperidine-1-carbonyl)benzoate], for which the IC50 in experiment [1] (ASSAY 6) was 9.43 µM; in experiment [1] (ASSAY 7), 8.26 µM; in experiment [1] (ASSAY 8), 10.8 µM.

The molecule `CN(C)c1ccc(CCC(=O)Nc2ccc(F)cc2C(=O)N2CCC(Oc3cc(N4CCCCC4)ccn3)CC2)cc1` [KDM3-27, 3-(4-(dimethylamino)phenyl)-N-(4-fluoro-2-(4-((4-(piperidin-1-yl)pyridin-2-yl)oxy)piperidine-1-carbonyl)phenyl)propanamide] showed an IC50 in experiment [1] (ASSAY 6) of 11.3 µM.
